Some test systems named below: MDA-MB-435; M14 melanoma; MOLT-4 leukemia; T-47D breast; LOX IMVI melanoma; KM12 colon; HL-60(TB) leukemia; HT29 colon; SK-MEL-2 melanoma; PC-3 prostate.
What all share (test): growth of human tumour cells (NCI), 48 h

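In this assay, cells in 96-well plates receive the compound at five concentrations for 48 hours. Endpoints are linearly interpolated between the surrounding concentrations. GI50 is the concentration that inhibits growth by half. TGI is the concentration that stops growth completely.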

For 8 compounds, TGI and GI50 results are on record in PubChem BioAssay (NCI).

In the case of `CCOC(=O)C(=Cc1ccc(Oc2ccccc2)cc1)C(=O)OCC`, the TGI with MDA-MB-435 turned out to be 6.33 µM; in the test on M14 melanoma, 9.6 µM; in the test on MOLT-4 leukemia it was 4.93 µM; in the test with T-47D breast, 24.6 µM; in the test on LOX IMVI melanoma, 3.22 µM; in the test with KM12 colon it was 19 µM. In addition, the TGI was found to be 5.54 µM in the test with HL-60(TB) leukemia, 11 µM in the test with HT29 colon, 4.4 µM with SK-MEL-2 melanoma and 6.12 µM in the test on PC-3 prostate.

For `CN1c2ccccc2C(C)(C)C12C=Cc1cc(O)ccc1O2` (stereo not given), the GI50 with MDA-MB-435 was 2.1 µM; in the test on M14 melanoma, 2.35 µM; in the test on MOLT-4 leukemia, 4.5 µM; in the test with T-47D breast, 4 µM; in the test with LOX IMVI melanoma, 3.41 µM; in the test on KM12 colon, 2.31 µM. Besides, the GI50 is 1.89 µM in the test on HL-60(TB) leukemia, 3.33 µM in the test with HT29 colon, 3.05 µM in the test with SK-MEL-2 melanoma and 3.6 µM with PC-3 prostate. Further, the TGI in the test on MDA-MB-435 was 4.49 µM; in the test on M14 melanoma, 5.52 µM; with MOLT-4 leukemia, greater than 100 µM; in the test on T-47D breast it was 16.9 µM; in the test with LOX IMVI melanoma, 12.6 µM; in the test with KM12 colon, 6.2 µM. In addition, the TGI with HL-60(TB) leukemia turned out to be 11.8 µM; in the test with HT29 colon, 11.6 µM; in the test with SK-MEL-2 melanoma, 11.5 µM; in the test on PC-3 prostate, 12.6 µM.

In the case of `CC(=Nc1ccccc1)C1=C(O)C(Cc2ccccc2)NC1=O` (stereo not given), the GI50 is 0.0196 µM with MDA-MB-435; 0.0248 µM with M14 melanoma; 0.0753 µM in the test on MOLT-4 leukemia; greater than 100 µM with T-47D breast; 0.0574 µM in the test with LOX IMVI melanoma; 0.0278 µM with KM12 colon. Moreover, the GI50 in the test on HL-60(TB) leukemia is 0.0265 µM; in the test on HT29 colon, 0.0331 µM; in the test on SK-MEL-2 melanoma, 0.0447 µM; with PC-3 prostate, 0.036 µM. The TGI in the test with MDA-MB-435 is 0.0528 µM; in the test on M14 melanoma, 0.102 µM; with MOLT-4 leukemia, greater than 100 µM; with T-47D breast it was greater than 100 µM; in the test with LOX IMVI melanoma it was greater than 34 µM; in the test on KM12 colon it was 0.266 µM. Moreover, the TGI in the test with HL-60(TB) leukemia is 0.0671 µM; in the test with HT29 colon, 0.151 µM; in the test on SK-MEL-2 melanoma it was greater than 31.5 µM; in the test with PC-3 prostate, greater than 100 µM.

For the compound `CC1OC(OC2C(O[C@H]3CC[C@@]4(C)C(=CC[C@H]5[C@@H]6C[C@@H]7O[C@]8(CC[C@H](C)CN8)[C@@H](C)[C@@H]7[C@@]6(C)CC[C@@H]54)C3)OC(CO)C(O)C2OC2OC(CO)C(O)C(O)C2O)C(O)C(O)C1O` (stereo not given in full), the TGI in the test on MDA-MB-435 worked out at 50.7 µM; in the test on M14 melanoma, 37.8 µM; with MOLT-4 leukemia, 42.1 µM; in the test on T-47D breast it was 39 µM; with LOX IMVI melanoma, 83.6 µM; in the test with KM12 colon it was 34.9 µM. For the same compound, the TGI was 32.6 µM in the test with HL-60(TB) leukemia, 31.6 µM in the test with HT29 colon, 32.4 µM in the test on SK-MEL-2 melanoma and 33.5 µM with PC-3 prostate.

For `CC(C)CCN=C(N)c1ccc(N2CCN(c3ccc(C(N)=NCCC(C)C)cc3)CC2)cc1`, the GI50 is 9.76 µM in the test with MDA-MB-435; 11.7 µM in the test on M14 melanoma; 14.6 µM in the test with MOLT-4 leukemia; 9.54 µM in the test on T-47D breast; 21.2 µM with LOX IMVI melanoma; 3.82 µM in the test with KM12 colon. Moreover, the GI50 in the test on HL-60(TB) leukemia was 4.74 µM; with HT29 colon it was 6.51 µM; in the test on SK-MEL-2 melanoma, 9.37 µM; in the test with PC-3 prostate, 11.4 µM. In addition, the TGI with MDA-MB-435 worked out at 24.2 µM; with M14 melanoma it was 29.6 µM; with MOLT-4 leukemia, 53.6 µM; in the test with T-47D breast, 57.9 µM; in the test on LOX IMVI melanoma, 57.3 µM; in the test on KM12 colon, 16.6 µM. Besides, the TGI with HL-60(TB) leukemia is 26.1 µM; with HT29 colon, 30.2 µM; in the test with SK-MEL-2 melanoma it was greater than 100 µM; in the test with PC-3 prostate it was 43.4 µM.

Regarding `COc1cc2c(cc1C)NC(=O)/C2=C\c1cccc(Oc2ccccc2)c1`, the GI50 is 11.8 µM with MDA-MB-435; 16.6 µM in the test on M14 melanoma; 6.23 µM with MOLT-4 leukemia; 11.4 µM with T-47D breast; 12.9 µM in the test with LOX IMVI melanoma; 14.3 µM in the test with KM12 colon. Further, the GI50 was 11.9 µM in the test on HL-60(TB) leukemia, 12.1 µM in the test with HT29 colon, 20.1 µM in the test with SK-MEL-2 melanoma and 12 µM in the test with PC-3 prostate. Besides, the TGI stood at 25.9 µM in the test with MDA-MB-435; 31 µM in the test with M14 melanoma; 21.8 µM with MOLT-4 leukemia; 81.4 µM with T-47D breast; 26.4 µM in the test on LOX IMVI melanoma; 34.6 µM with KM12 colon. Further, the TGI amounted to 26.8 µM in the test with HL-60(TB) leukemia, 26.1 µM in the test with HT29 colon, 47.1 µM with SK-MEL-2 melanoma and 25.2 µM in the test with PC-3 prostate.

With `NC(=O)c1cc(-c2ccc(F)cc2)cc(-c2ccncc2)c1N`, the GI50 in the test with MDA-MB-435, in the test on M14 melanoma, in the test with MOLT-4 leukemia, in the test with T-47D breast, in the test with LOX IMVI melanoma and in the test on KM12 colon was greater than 25 µM in each case. Moreover, the GI50 with HL-60(TB) leukemia, with HT29 colon, in the test on SK-MEL-2 melanoma and in the test on PC-3 prostate was greater than 25 µM throughout. Besides, the TGI with MDA-MB-435, with M14 melanoma, with MOLT-4 leukemia, with T-47D breast, in the test with LOX IMVI melanoma and with KM12 colon was greater than 25 µM in each case. The TGI in the test on HL-60(TB) leukemia, with HT29 colon, in the test with SK-MEL-2 melanoma and with PC-3 prostate was greater than 25 µM throughout.

For `COc1cc(Nc2ccnc(NCCCNc3ccnc4cc(Cl)ccc34)n2)cc(OC)c1`, the GI50 in the test with MDA-MB-435 was 1.51 µM; in the test with M14 melanoma it was 1.7 µM; with MOLT-4 leukemia, 2.23 µM; with T-47D breast, 1.89 µM; in the test with LOX IMVI melanoma it was 1.37 µM; with KM12 colon it was 2.92 µM. Moreover, the GI50 was 2.04 µM in the test on HL-60(TB) leukemia, 1.33 µM in the test with HT29 colon, 1.91 µM in the test with SK-MEL-2 melanoma and 2.68 µM in the test with PC-3 prostate. Further, the TGI in the test on MDA-MB-435 amounted to 2.88 µM; in the test with M14 melanoma it was 3.46 µM; in the test on MOLT-4 leukemia, 6.39 µM; with T-47D breast it was 4.81 µM; in the test with LOX IMVI melanoma, 2.82 µM; with KM12 colon it was 9.46 µM. Further, the TGI with HL-60(TB) leukemia worked out at 4.54 µM; in the test with HT29 colon it was 3.62 µM; in the test on SK-MEL-2 melanoma, 3.54 µM; in the test with PC-3 prostate, 14.2 µM.
